Where two headings read alike, the source gives them in different places.
Molecular target: T1, Maillard product of lactose and albumin from chicken egg (band at ~50-55 kDa) (Gallus gallus, UniProt P01012)
T1 sequence (P01012 1-386): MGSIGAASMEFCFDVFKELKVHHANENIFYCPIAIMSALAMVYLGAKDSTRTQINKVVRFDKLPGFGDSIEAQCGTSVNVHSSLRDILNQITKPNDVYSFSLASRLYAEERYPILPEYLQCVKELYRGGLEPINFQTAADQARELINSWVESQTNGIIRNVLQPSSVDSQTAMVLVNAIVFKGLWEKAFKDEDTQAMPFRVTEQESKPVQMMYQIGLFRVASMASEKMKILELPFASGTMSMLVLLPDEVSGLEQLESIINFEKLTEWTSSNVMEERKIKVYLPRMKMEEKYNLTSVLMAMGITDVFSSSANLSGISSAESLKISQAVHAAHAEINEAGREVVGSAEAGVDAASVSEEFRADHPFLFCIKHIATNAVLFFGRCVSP
Conditions: complex 0.2 mM, Maillard product 3 g/l, 60° C., pH 9.5
Description: A mixture of lactose and albumin from chicken egg, approx. 45 000 g/mol, in a weight ratio of 3:1 was dissolved in de-salinated water and stirred for 30 min at room temperature. The resulting solution was lyophilized using a commercial lab lyophilizer (Christ; Gamma 1-20) and homogenized. 0.5 g of the resulting powder was heated to 140° C. for 20 min and was then allowed to cool to room temperature. […] An aqueous solution of the Maillard product (3 g/l) was incubated at 60° C. at pH 9.5 (hydrogen carbonate/carbonate buffer) with the complexes of examples 1 and 2 at the concentrations and for amounts of time given in table 1. The progress of protein degradation was followed by SDS page gel analysis. The intensity value of the band at ˜50-55 kDa at time t=0, that is before the start of incubation, is set to 1.

O=C1CN2CCN3CC(=O)[O][Zr]([O]1)([O]c1ccccc1C2)[O]c1ccccc1C3 [Complex K1]
Intensity of the band at ~50-55 kDa (t = 0 h (before start of incubation, set to 1)): 1
Intensity of the band at ~50-55 kDa (t = 1 h, relative to t=0 set to 1): 0.91
Intensity of the band at ~50-55 kDa (t = 2 h, relative to t=0 set to 1): 0.83

Reference: patent publication US20210087496A1, “Non-Enzymatic Removal Of Proteinaceous Soils” (Henkel AG & Co. KGaA, priority 2019, published 2021)
